# From the supplement of paper PMC10307832
# Legend:
# Test in all cases: relative viability (nuclei count vs DMSO), 5 days (fraction); higher = more cells survive
# [1] = compound: CCc1c2c(nc3ccc(OC(=O)N4CCC(N5CCCCC5)CC4)cc13)-c1cc3c(c(=O)n1C2)COC(=O)[C@]3(O)CC [Irinotecan] + C[C@]1(O)C[C@@H](c2nc(-c3ccc4ccc(-c5ccccc5)nc4c3)c3c(N)nccn32)C1 [Linsitinib] (partner 1 µM)
# Method in brief: (§1)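 After 5 days of treatment, lung cancer cells in 1536-well plates were fixed and stained in a single step (final 0.05% Triton X-100, 1% formaldehyde, 1 ug/ml Hoechst) and their nuclei counted on 4× images. Treatment had been applied by pin tool the day after seeding as one drug alone or as a fixed anchor-drug dose with five library-drug doses (not always all listed) in √10 steps. Relative viability is the nuclei count of treated wells divided by that of vehicle wells, and values are medians of duplicate plates.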
# [2] = compound: Cn1cc(-c2cnc3ccc4ccc(CS(=O)(=O)NCc5ccccn5)cc4c(=O)c3c2)cn1 [MK-8033] + CC(C)C[C@H](NC(=O)[C@H](Cc1ccccc1)NC(=O)c1cnccn1)B(O)O [Bortezomib] (partner 0.002 µM)
# Method in brief: as §1
# [3] = compound: Cn1cc(-c2cnc3ccc4ccc(CS(=O)(=O)NCc5ccccn5)cc4c(=O)c3c2)cn1 [MK-8033] + CC(=O)Nc1cccc(-n2c(=O)n(C3CC3)c(=O)c3c(Nc4ccc(I)cc4F)n(C)c(=O)c(C)c32)c1 [Trametinib] (partner 0.02 µM)
# Method in brief: as §1
# [4] = compound: Cn1cc(-c2cnc3ccc4ccc(CS(=O)(=O)NCc5ccccn5)cc4c(=O)c3c2)cn1 [MK-8033] + CS(=O)(=O)CCNCc1ccc(-c2ccc3ncnc(Nc4ccc(OCc5cccc(F)c5)c(Cl)c4)c3c2)o1 [Lapatinib] (partner 2 µM)
# Method in brief: as §1
cell line,measurement,setting,value
UMC-11,relative viability,[1]; first compound 0.6325 µM,0.724
same,relative viability,[1]; first compound 2 µM,0.49
same,relative viability,[1]; first compound 6.325 µM,0.281
same,relative viability,[1]; first compound 20 µM,0.22
same,relative viability,[2]; first compound 0.02 µM,0.673
same,relative viability,[2]; first compound 0.06325 µM,0.664
same,relative viability,[2]; first compound 0.2 µM,0.831
same,relative viability,[2]; first compound 0.6325 µM,0.665
same,relative viability,[2]; first compound 2 µM,0.664
same,relative viability,[3]; first compound 0.02 µM,0.714
same,relative viability,[3]; first compound 0.06325 µM,0.457
same,relative viability,[3]; first compound 0.2 µM,0.604
same,relative viability,[3]; first compound 0.6325 µM,0.643
same,relative viability,[3]; first compound 2 µM,0.642
same,relative viability,[4]; first compound 0.02 µM,1.02
same,relative viability,[4]; first compound 0.06325 µM,0.522
same,relative viability,[4]; first compound 0.2 µM,0.866
same,relative viability,[4]; first compound 0.6325 µM,1.04
same,relative viability,[4]; first compound 2 µM,0.944
